Reference: patent US9295670B2, “Methods for treating obstructive sleep apnea” (priority 2011, dated 2016)
“Also recorded” adds a separate entry of the source. Marks after values point to notes of the source that are not given here.

Columns and labels:
[1] = Serum drug concentrations after oral PYD bromide in OSA patients (Example 1, LC-MS); assay type: in vivo, human
Procedure: (§1) A randomized, double-blind, placebo-controlled, crossover study with PYD was undertaken in 12 patients with moderate to severe OSA. PYD was prepared by grinding pyridostigmine bromide pills manufactured by Sunve Pharmaceutical Co., LTD., Shanghai, China and recapsulated into hard shell capsules. PYD bromide at 30 mg, 60 mg, 120 mg, or placebo was orally administered to patients before sleep each night for a total of four continuous nights. Lights went out within 5 min after the administration. Blood was drawn at 0, 0.5, 1, 1.5, 2, 2.5, 3, 4 and 7 hours after the administration, and serum drug concentrations were determined by a LC-MS method after proper pre-treatment of the blood samples. Patients were monitored by either a PSG or a PM throughout the nights.

[2] = tested on: diagnosed OSA patients; test: Double-blind, randomized, cross-over, placebo-controlled study of efficacy and safety of PYD in 6 OSA patients (Example 2; PSG, questionnaires); assay type: in vivo, human; conditions: for Apnea/Hypopnea Index (AHI): 90 mg PYD bromide oral, mean of 6 patients; for Apnea/Hypopnea Index (AHI) / Apnea index (AI) / Hypopnea Index (HI): events per hour; for Apnea/Hypopnea Index (AHI) Reduction (%) / Hypopnea Index (HI) Reduction (%) / Apnea index (AI) Reduction (%) / Apnea/Hypopnea time Reduction (%) / Low Sat O2 Reduction (%) / Snore score Reduction (%): 90 mg vs placebo; for Apnea/Hypopnea time (%): percentage of total sleep time
Procedure: A double-blind, randomized, cross-over, placebo-controlled study was conducted to evaluate the efficacy and safety of PYD in 6 diagnosed OSA patients. The study consists of a one-day acclimatization period followed immediately by a 2-day double-blind treatment period when patients received either 90 mg PYD bromide in hard shell capsules or a matching placebo before sleep with a light snack. All patients were required to maintain in a supine position throughout of the night, as OSA is most severe when patients is on their back. In such a way, the results are expected to be more conservative in judging therapeutic effects of the drug. Lights were turned off within 5 min after the administration of the drug. The patients were monitored by a PSG. Apnea, hypopnea, snoring, blood O2 saturation were monitored, recorded, and scored. Sleep questionnaires were taken everyday after sleep to evaluate the impact on the sleep satisfaction and at evening to evaluate the quality of life during the daytime. Safety of the drug was also monitored and evaluated.

[3] = tested on: patients with moderate to severe OSA; test: Randomized, double-blind, placebo-controlled, crossover study with PYD in 12 patients with moderate to severe OSA (Example 1; PSG or PM); assay type: in vivo, human
Procedure: as §1

[4] = in vivo; cited from earlier work
[5] = tested on: OSA patient; test: Randomized, double-blind, dose escalating study in one OSA patient (Example 3; PSG); assay type: in vivo, human; conditions: FIG. 9
Procedure: A randomized, double-blind, dose escalating study was carried out in one patient to determine optimum PYD dose range for treating OSA. The patient was administered to with 30, 60, 90 mg PYD bromide or a placebo before sleep, and was monitored by PSG throughout the night. AHI, AI, and total apnea/hypopnea time were lower in the nights administered with 30 or 60 mg PYD bromide compared with the night with 90 mg PYD bromide (FIG. 9). The number of low O2 saturation events was lower with 60 mg PYD bromide compared with that of 90 mg PYD bromide. The results obtained from the clinical study described in Example 2 were reexamined to compare the therapeutic responses in the windows of 2-5 hours and 5-7 hours after sleep. […] Since serum PYD concentrations are expected to be lower within 5-7 hours comparing with those within 2-5 hours, the optimum dose range may be less than 90 mg of PYD bromide in a single dose.

[6] = 0-2 hr, P value >0.05, listed as Drug
[7] = 0-2 hr, P value >0.05, listed as PYD bromide
[8] = 2-7 hr, P value >0.05, listed as Drug
[9] = 2-7 hr, P value >0.05, listed as PYD bromide
[10] = one patient, three treatment nights (30, 60, 120 mg), 2-7 hours after lights off

CN(C)C(=O)Oc1ccc[n+](C)c1 [PYD, pyridostigmine]
serum drug concentrations in one patient ([1]; one patient monitored by PSG all four nights, 30, 60, 120 mg oral, FIG. 2): 3 to 45 ng/mL
time of peak serum drug concentration ([1]; oral PYD bromide 30, 60 or 120 mg before sleep, 12 OSA patients, FIG. 1): 3 to 4 h
Apnea/Hypopnea Index (AHI) ([2]; 0-2 hr after sleep): 29.6
Apnea/Hypopnea Index (AHI) ([2]; 2-7 hr after sleep): 20.4
Apnea/Hypopnea Index (AHI) Reduction (%) ([2]; 0-2 hr after sleep, P value >0.05, listed as Drug): 13.1*** %
Apnea/Hypopnea Index (AHI) Reduction (%) ([2]; 0-2 hr after sleep, P value >0.05, listed as PYD bromide): No statistically significant reduction
Hypopnea Index (HI) Reduction (%) ([2]; 0-2 hr, P value >0.05): −17.7*** %
Apnea index (AI) Reduction (%) [2, 6]: 26.7*** %
Apnea/Hypopnea time Reduction (%) [2, 6]: 21.5*** %
Low Sat O2 Reduction (%) [2, 6]: 6.6*** %
Snore score Reduction (%) [2, 6]: 3.3*** %
Apnea index (AI) Reduction (%) [2, 7]: No statistically significant reduction
Apnea/Hypopnea time Reduction (%) [2, 7]: No statistically significant reduction
Low Sat O2 Reduction (%) [2, 7]: No statistically significant reduction
Snore score Reduction (%) [2, 7]: No statistically significant reduction
Apnea/Hypopnea Index (AHI) Reduction (%) ([2]; 2-7 hr after sleep, P value <0.01 (0.0003), listed as Drug): 28.0* %
Apnea/Hypopnea Index (AHI) Reduction (%) ([2]; 2-7 hr after sleep, P value <0.01 (0.0003), listed as PYD bromide): 28.0%
Apnea/Hypopnea time Reduction (%) ([2]; 2-7 hr, 0.01 < P value < 0.05 (0.0133), listed as Drug): 36.4** %
Apnea/Hypopnea time Reduction (%) ([2]; 2-7 hr, 0.01 < P value < 0.05 (0.0133), listed as PYD bromide): 36.4%
Apnea index (AI) Reduction (%) ([2]; 2-7 hr, 0.01 < P value < 0.05 (0.0314), listed as Drug): 37.3** %
Apnea index (AI) Reduction (%) ([2]; 2-7 hr, 0.01 < P value < 0.05 (0.0314), listed as PYD bromide): 37.3%
Snore score Reduction (%) ([2]; 2-7 hr, P value <0.01 (0.0041), listed as Drug): 18.8* %
Snore score Reduction (%) ([2]; 2-7 hr, P value <0.01 (0.0041), listed as PYD bromide): 18.8%
Hypopnea Index (HI) Reduction (%) [2, 8]: 10.3*** %
Low Sat O2 Reduction (%) [2, 8]: 12.5*** %
Hypopnea Index (HI) Reduction (%) [2, 9]: 10.3%
Low Sat O2 Reduction (%) [2, 9]: 12.5%
Low Sat O2 (events/hr) ([2]; 90 mg, 0-2 hr after sleep): 35.1 events/hr
Snore score (events/hr) ([2]; 90 mg, 0-2 hr after sleep): 528 events/hr
Apnea index (AI) ([2]; 90 mg, 0-2 hr after sleep): 16.9
Hypopnea Index (HI) ([2]; 90 mg, 0-2 hr after sleep): 12.0
Apnea/Hypopnea time (%) ([2]; 90 mg, 0-2 hr): 18.7%
Low Sat O2 (events/hr) ([2]; 90 mg, 2-7 hr after sleep): 24.9 events/hr
Snore score (events/hr) ([2]; 90 mg, 2-7 hr after sleep): 485 events/hr
Apnea index (AI) ([2]; 90 mg, 2-7 hr after sleep): 11.7
Hypopnea Index (HI) ([2]; 90 mg, 2-7 hr after sleep): 8.7
Apnea/Hypopnea time (%) ([2]; 90 mg, 2-7 hr): 14.5%
PSG scores (AHI, AI, total apnea/hypopnea time, low O2 saturation events) ([2]; 90 mg, 5-7 hours compared with 2-5 hours after sleep, FIG. 10): statistically significantly lower
daytime quality of life reported by patients ([2]; daytime following the drug treatment night): more energy, be more concentrated and be less sleepy
tolerability / serious adverse reactions ([2]; single dose 90 mg PYD bromide): well tolerated; also recorded: no serious adverse reaction was reported
adverse reactions found ([2]; single dose 90 mg, one patient): minor stomach upset
longer total sleep time in the treatment night (average) ([2]; three patients, treatment night vs placebo night, FIG. 8): 33 min
noise of snoring ([2]; treatment night compared with placebo night): quieter
sleep quality, patients' self evaluation questionnaire ([2]; treatment night vs placebo night, FIG. 8): better sleep, more clear-headed, more energetic, and more satisfied sleep
serious adverse reactions ([3]; 30, 60, 120 mg oral, during the study): No serious adverse reaction was reported
serum drug concentrations at which patients particularly responded positively ([3]; 'particularly between'): 3 to 60 ng/mL
AHI and events of low O2 saturation ([3]; one patient, 0-2 hours after lights off): largely not changed
AHI and low O2 saturation, dose response ([3]; one patient, 30-60 mg compared with 120 mg PYD bromide, FIG. 2): lower AHI and less low O2 saturation
reduction of AHI compared with placebo [3, 10]: 11-23%
reduction of events of low blood O2 saturation compared with placebo [3, 10]: 10-18%
adverse reactions at the highest dose ([3]; patients treated with the highest dose): stomach upset and mild muscle cramp
serum drug concentrations at which patients responded positively ([3]; positive responses: reduction of AHI, AI, apnea/hypopnea time, snoring, increase in minimum oxygen saturation): 2 to 150 ng/mL
elimination half-life [4]: approximately 1.78 hours
number of low O2 saturation events ([5]; 60 mg compared with 90 mg PYD bromide): lower
AHI, AI, and total apnea/hypopnea time ([5]; nights with 30 or 60 mg compared with the night with 90 mg PYD bromide): lower
